Reference: ChEMBL document CHEMBL4627246, “Pyroglutamide-Based P2X7 Receptor Antagonists Targeting Inflammatory Bowel Disease” (J Med Chem, 2020)

Test system: RPMI-8226
Experiment: Cytotoxicity against human RPMI8226 cells assessed as effect on cell growth at 10 uM incubated for 48 hrs by sulforhodamine B assay
Assay type: cell-based
Details: rpmi-8226, 48 h

SMILES | Activity
COc1ccc(NC(=O)[C@@H]2C/C(=C\N(C)C)C(=O)N2)cc1 | Non-Toxic
C[n+]1ccccc1C(=O)NCc1ccc(Cl)cc1Cl.[I-] | Non-Toxic
CN(C)/C=C1\C[C@H]2C(=O)N(/C(=C/N(C)C)c3ccncc3)C(N(C)C)N2C1=O (stereo not given in full) | Non-Toxic
O=C(NCc1ccc(Cl)cc1Cl)[C@@H]1CCC(=O)N1c1ccc(Cl)cc1 | Non-Toxic

Test system: EKVX
Experiment: Cytotoxicity against human EKVX cells assessed as effect on cell growth at 10 uM incubated for 48 hrs by sulforhodamine B assay
Assay type: cell-based
Details: not given

SMILES | Activity
COc1ccc(NC(=O)[C@@H]2C/C(=C\N(C)C)C(=O)N2)cc1 | Non-Toxic
C[n+]1ccccc1C(=O)NCc1ccc(Cl)cc1Cl.[I-] | Non-Toxic
CN(C)/C=C1\C[C@H]2C(=O)N(/C(=C/N(C)C)c3ccncc3)C(N(C)C)N2C1=O (stereo not given in full) | Non-Toxic
O=C(NCc1ccc(Cl)cc1Cl)[C@@H]1CCC(=O)N1c1ccc(Cl)cc1 | Non-Toxic

Test system: SW-620
Experiment: Cytotoxicity against human SW620 cells assessed as effect on cell growth at 10 uM incubated for 48 hrs by sulforhodamine B assay
Assay type: cell-based
Details: sw-620, 48 h

SMILES | Activity
COc1ccc(NC(=O)[C@@H]2C/C(=C\N(C)C)C(=O)N2)cc1 | Non-Toxic
C[n+]1ccccc1C(=O)NCc1ccc(Cl)cc1Cl.[I-] | Non-Toxic
CN(C)/C=C1\C[C@H]2C(=O)N(/C(=C/N(C)C)c3ccncc3)C(N(C)C)N2C1=O (stereo not given in full) | Non-Toxic
O=C(NCc1ccc(Cl)cc1Cl)[C@@H]1CCC(=O)N1c1ccc(Cl)cc1 | Non-Toxic

Test system: A549
Experiment: Cytotoxicity against human A549/ATCC cells assessed as effect on cell growth at 10 uM incubated for 48 hrs by sulforhodamine B assay
Assay type: cell-based
Details: a549, 48 h

SMILES | Activity
COc1ccc(NC(=O)[C@@H]2C/C(=C\N(C)C)C(=O)N2)cc1 | Non-Toxic
C[n+]1ccccc1C(=O)NCc1ccc(Cl)cc1Cl.[I-] | Non-Toxic
CN(C)/C=C1\C[C@H]2C(=O)N(/C(=C/N(C)C)c3ccncc3)C(N(C)C)N2C1=O (stereo not given in full) | Non-Toxic
O=C(NCc1ccc(Cl)cc1Cl)[C@@H]1CCC(=O)N1c1ccc(Cl)cc1 | Non-Toxic

Test system: HL-60(TB)
Experiment: Cytotoxicity against human HL-60(TB) cells assessed as effect on cell growth at 10 uM incubated for 48 hrs by sulforhodamine B assay
Assay type: cell-based
Details: not given

SMILES | Activity
COc1ccc(NC(=O)[C@@H]2C/C(=C\N(C)C)C(=O)N2)cc1 | Non-Toxic
C[n+]1ccccc1C(=O)NCc1ccc(Cl)cc1Cl.[I-] | Non-Toxic
CN(C)/C=C1\C[C@H]2C(=O)N(/C(=C/N(C)C)c3ccncc3)C(N(C)C)N2C1=O (stereo not given in full) | Non-Toxic
O=C(NCc1ccc(Cl)cc1Cl)[C@@H]1CCC(=O)N1c1ccc(Cl)cc1 | Non-Toxic

Test system: MOLT-4
Experiment: Cytotoxicity against human MOLT4 cells assessed as effect on cell growth at 10 uM incubated for 48 hrs by sulforhodamine B assay
Assay type: cell-based
Details: molt-4, 48 h

SMILES | Activity
COc1ccc(NC(=O)[C@@H]2C/C(=C\N(C)C)C(=O)N2)cc1 | Non-Toxic
C[n+]1ccccc1C(=O)NCc1ccc(Cl)cc1Cl.[I-] | Non-Toxic
CN(C)/C=C1\C[C@H]2C(=O)N(/C(=C/N(C)C)c3ccncc3)C(N(C)C)N2C1=O (stereo not given in full) | Non-Toxic
O=C(NCc1ccc(Cl)cc1Cl)[C@@H]1CCC(=O)N1c1ccc(Cl)cc1 | Non-Toxic

Test system: SF-295
Experiment: Cytotoxicity against human SF295 cells assessed as effect on cell growth at 10 uM incubated for 48 hrs by sulforhodamine B assay
Assay type: cell-based
Details: sf-295, 48 h

SMILES | Activity
COc1ccc(NC(=O)[C@@H]2C/C(=C\N(C)C)C(=O)N2)cc1 | Non-Toxic
C[n+]1ccccc1C(=O)NCc1ccc(Cl)cc1Cl.[I-] | Non-Toxic
CN(C)/C=C1\C[C@H]2C(=O)N(/C(=C/N(C)C)c3ccncc3)C(N(C)C)N2C1=O (stereo not given in full) | Non-Toxic
O=C(NCc1ccc(Cl)cc1Cl)[C@@H]1CCC(=O)N1c1ccc(Cl)cc1 | Non-Toxic

Test system: ACHN
Experiment: Cytotoxicity against human ACHN cells assessed as effect on cell growth at 10 uM incubated for 48 hrs by sulforhodamine B assay
Assay type: cell-based
Details: not given

SMILES | Activity
COc1ccc(NC(=O)[C@@H]2C/C(=C\N(C)C)C(=O)N2)cc1 | Non-Toxic
C[n+]1ccccc1C(=O)NCc1ccc(Cl)cc1Cl.[I-] | Non-Toxic
CN(C)/C=C1\C[C@H]2C(=O)N(/C(=C/N(C)C)c3ccncc3)C(N(C)C)N2C1=O (stereo not given in full) | Non-Toxic
O=C(NCc1ccc(Cl)cc1Cl)[C@@H]1CCC(=O)N1c1ccc(Cl)cc1 | Non-Toxic

Test system: M14
Experiment: Cytotoxicity against human M14 cells assessed as effect on cell growth at 10 uM incubated for 48 hrs by sulforhodamine B assay
Assay type: cell-based
Details: m14, 48 h

SMILES | Activity
COc1ccc(NC(=O)[C@@H]2C/C(=C\N(C)C)C(=O)N2)cc1 | Non-Toxic
C[n+]1ccccc1C(=O)NCc1ccc(Cl)cc1Cl.[I-] | Non-Toxic
CN(C)/C=C1\C[C@H]2C(=O)N(/C(=C/N(C)C)c3ccncc3)C(N(C)C)N2C1=O (stereo not given in full) | Non-Toxic
O=C(NCc1ccc(Cl)cc1Cl)[C@@H]1CCC(=O)N1c1ccc(Cl)cc1 | Non-Toxic

Test system: A498
Experiment: Cytotoxicity against human A498 cells assessed as effect on cell growth at 10 uM incubated for 48 hrs by sulforhodamine B assay
Assay type: cell-based
Details: a498, 48 h

SMILES | Activity
COc1ccc(NC(=O)[C@@H]2C/C(=C\N(C)C)C(=O)N2)cc1 | Non-Toxic
C[n+]1ccccc1C(=O)NCc1ccc(Cl)cc1Cl.[I-] | Non-Toxic
CN(C)/C=C1\C[C@H]2C(=O)N(/C(=C/N(C)C)c3ccncc3)C(N(C)C)N2C1=O (stereo not given in full) | Non-Toxic
O=C(NCc1ccc(Cl)cc1Cl)[C@@H]1CCC(=O)N1c1ccc(Cl)cc1 | Non-Toxic

Test system: SR
Experiment: Cytotoxicity against human SR cells assessed as effect on cell growth at 10 uM incubated for 48 hrs by sulforhodamine B assay
Assay type: cell-based
Details: not given

SMILES | Activity
COc1ccc(NC(=O)[C@@H]2C/C(=C\N(C)C)C(=O)N2)cc1 | Non-Toxic
C[n+]1ccccc1C(=O)NCc1ccc(Cl)cc1Cl.[I-] | Non-Toxic
CN(C)/C=C1\C[C@H]2C(=O)N(/C(=C/N(C)C)c3ccncc3)C(N(C)C)N2C1=O (stereo not given in full) | Non-Toxic
O=C(NCc1ccc(Cl)cc1Cl)[C@@H]1CCC(=O)N1c1ccc(Cl)cc1 | Non-Toxic

Test system: HCT-15
Experiment: Cytotoxicity against human HCT15 cells assessed as effect on cell growth at 10 uM incubated for 48 hrs by sulforhodamine B assay
Assay type: cell-based
Details: hct-15, 48 h

SMILES | Activity
COc1ccc(NC(=O)[C@@H]2C/C(=C\N(C)C)C(=O)N2)cc1 | Non-Toxic
C[n+]1ccccc1C(=O)NCc1ccc(Cl)cc1Cl.[I-] | Non-Toxic
CN(C)/C=C1\C[C@H]2C(=O)N(/C(=C/N(C)C)c3ccncc3)C(N(C)C)N2C1=O (stereo not given in full) | Non-Toxic
O=C(NCc1ccc(Cl)cc1Cl)[C@@H]1CCC(=O)N1c1ccc(Cl)cc1 | Non-Toxic

Test system: NCI-H460
Experiment: Cytotoxicity against human NCI-H460 cells assessed as effect on cell growth at 10 uM incubated for 48 hrs by sulforhodamine B assay
Assay type: cell-based
Details: nci-h460, 48 h

SMILES | Activity
COc1ccc(NC(=O)[C@@H]2C/C(=C\N(C)C)C(=O)N2)cc1 | Non-Toxic
C[n+]1ccccc1C(=O)NCc1ccc(Cl)cc1Cl.[I-] | Non-Toxic
CN(C)/C=C1\C[C@H]2C(=O)N(/C(=C/N(C)C)c3ccncc3)C(N(C)C)N2C1=O (stereo not given in full) | Non-Toxic
O=C(NCc1ccc(Cl)cc1Cl)[C@@H]1CCC(=O)N1c1ccc(Cl)cc1 | Non-Toxic

Test system: UO-31
Experiment: Cytotoxicity against human UO31 cells assessed as effect on cell growth at 10 uM incubated for 48 hrs by sulforhodamine B assay
Assay type: cell-based
Details: uo-31, 48 h

SMILES | Activity
COc1ccc(NC(=O)[C@@H]2C/C(=C\N(C)C)C(=O)N2)cc1 | Non-Toxic
C[n+]1ccccc1C(=O)NCc1ccc(Cl)cc1Cl.[I-] | Non-Toxic
CN(C)/C=C1\C[C@H]2C(=O)N(/C(=C/N(C)C)c3ccncc3)C(N(C)C)N2C1=O (stereo not given in full) | Non-Toxic
O=C(NCc1ccc(Cl)cc1Cl)[C@@H]1CCC(=O)N1c1ccc(Cl)cc1 | Non-Toxic

Test system: DU-145
Experiment: Cytotoxicity against human DU145 cells assessed as effect on cell growth at 10 uM incubated for 48 hrs by sulforhodamine B assay
Assay type: cell-based
Details: du-145, 48 h

SMILES | Activity
COc1ccc(NC(=O)[C@@H]2C/C(=C\N(C)C)C(=O)N2)cc1 | Non-Toxic
C[n+]1ccccc1C(=O)NCc1ccc(Cl)cc1Cl.[I-] | Non-Toxic
CN(C)/C=C1\C[C@H]2C(=O)N(/C(=C/N(C)C)c3ccncc3)C(N(C)C)N2C1=O (stereo not given in full) | Non-Toxic
O=C(NCc1ccc(Cl)cc1Cl)[C@@H]1CCC(=O)N1c1ccc(Cl)cc1 | Non-Toxic

Test system: SK-OV-3
Experiment: Cytotoxicity against human SKOV3 cells assessed as effect on cell growth at 10 uM incubated for 48 hrs by sulforhodamine B assay
Assay type: cell-based
Details: sk-ov-3, 48 h

SMILES | Activity
COc1ccc(NC(=O)[C@@H]2C/C(=C\N(C)C)C(=O)N2)cc1 | Non-Toxic
C[n+]1ccccc1C(=O)NCc1ccc(Cl)cc1Cl.[I-] | Non-Toxic
CN(C)/C=C1\C[C@H]2C(=O)N(/C(=C/N(C)C)c3ccncc3)C(N(C)C)N2C1=O (stereo not given in full) | Non-Toxic
O=C(NCc1ccc(Cl)cc1Cl)[C@@H]1CCC(=O)N1c1ccc(Cl)cc1 | Non-Toxic

Test system: OVCAR-5
Experiment: Cytotoxicity against human OVCAR5 cells assessed as effect on cell growth at 10 uM incubated for 48 hrs by sulforhodamine B assay
Assay type: cell-based
Details: ovcar-5, 48 h

SMILES | Activity
COc1ccc(NC(=O)[C@@H]2C/C(=C\N(C)C)C(=O)N2)cc1 | Non-Toxic
C[n+]1ccccc1C(=O)NCc1ccc(Cl)cc1Cl.[I-] | Non-Toxic
CN(C)/C=C1\C[C@H]2C(=O)N(/C(=C/N(C)C)c3ccncc3)C(N(C)C)N2C1=O (stereo not given in full) | Non-Toxic
O=C(NCc1ccc(Cl)cc1Cl)[C@@H]1CCC(=O)N1c1ccc(Cl)cc1 | Non-Toxic

Test system: 786-0
Experiment: Cytotoxicity against human 786-0 cells assessed as effect on cell growth at 10 uM incubated for 48 hrs by sulforhodamine B assay
Assay type: cell-based
Details: 786-0, 48 h

SMILES | Activity
COc1ccc(NC(=O)[C@@H]2C/C(=C\N(C)C)C(=O)N2)cc1 | Non-Toxic
C[n+]1ccccc1C(=O)NCc1ccc(Cl)cc1Cl.[I-] | Non-Toxic
CN(C)/C=C1\C[C@H]2C(=O)N(/C(=C/N(C)C)c3ccncc3)C(N(C)C)N2C1=O (stereo not given in full) | Non-Toxic
O=C(NCc1ccc(Cl)cc1Cl)[C@@H]1CCC(=O)N1c1ccc(Cl)cc1 | Non-Toxic

Test system: KM12
Experiment: Cytotoxicity against human KM12 cells assessed as effect on cell growth at 10 uM incubated for 48 hrs by sulforhodamine B assay
Assay type: cell-based
Details: km12, 48 h

SMILES | Activity
COc1ccc(NC(=O)[C@@H]2C/C(=C\N(C)C)C(=O)N2)cc1 | Non-Toxic
C[n+]1ccccc1C(=O)NCc1ccc(Cl)cc1Cl.[I-] | Non-Toxic
CN(C)/C=C1\C[C@H]2C(=O)N(/C(=C/N(C)C)c3ccncc3)C(N(C)C)N2C1=O (stereo not given in full) | Non-Toxic
O=C(NCc1ccc(Cl)cc1Cl)[C@@H]1CCC(=O)N1c1ccc(Cl)cc1 | Non-Toxic

Test system: SF-539
Experiment: Cytotoxicity against human SF539 cells assessed as effect on cell growth at 10 uM incubated for 48 hrs by sulforhodamine B assay
Assay type: cell-based
Details: sf-539, 48 h

SMILES | Activity
COc1ccc(NC(=O)[C@@H]2C/C(=C\N(C)C)C(=O)N2)cc1 | Non-Toxic
C[n+]1ccccc1C(=O)NCc1ccc(Cl)cc1Cl.[I-] | Non-Toxic
CN(C)/C=C1\C[C@H]2C(=O)N(/C(=C/N(C)C)c3ccncc3)C(N(C)C)N2C1=O (stereo not given in full) | Non-Toxic
O=C(NCc1ccc(Cl)cc1Cl)[C@@H]1CCC(=O)N1c1ccc(Cl)cc1 | Non-Toxic
